What all share (assay type): cell-based
The subject of assay [1] is Staphylococcus aureus, USA 300. As to the kind of experiment: Minimal inhibitory concentration assay. To be noted: USA300, read-out: Minimal Inhibitory Concentrations S. aureus USA 300. In outline: (§1)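 Broth microdilution per CLSI M7-A7: two-fold serial dilutions of compound in broth (top final concentration 200 μM) were inoculated with ~10^5 cfu/mL bacteria and incubated aerobically overnight at 37 °C. MIC was read visually as the lowest concentration preventing growth.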

The subject of assay [2] is Staphylococcus aureus, USA 300 wherein ClpP is inactivated. As to the kind of experiment: Minimal inhibitory concentration assay. In outline: as §1
The subject of assay [3] is Streptococcus pyogenes, ATCC 700294. Briefly: Minimal inhibitory concentration assay (microbroth dilution). Particulars: Streptococcus pyogenes, ATCC700294, read-out: Minimal Inhibitory Concentrations S. pyogenes ATCC 700294. In short, it runs like this: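 CLSI broth microdilution: two-fold serial compound dilutions in appropriate broth, inoculated and incubated aerobically overnight at 37° C. MIC read visually as lowest concentration preventing bacterial growth.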
A general note: Broth dilution looks for growth in wells or tubes with falling amounts of substance.

Converted amounts (≈) assume the structure as drawn. *1 amine or outer side, *2 acyl side, *3 side chain or, on linkers, in order; H or OH if unused. Where a SMILES comes first, the peptide text is derived from it. Bridges are numbered along the chain shown (N, C = ends). [ ]: non-standard residue; d: D form. The star is where a group is joined. ξ: configuration not given here. Phe(3,5-F2) = N[C@@H](Cc1cc(F)cc(F)c1)C(=O)O; Pro(4R-Me) = C[C@H]1CN[C@H](C(=O)O)C1; ξPro(4R-OH) = O=C(O)C1C[C@@H](O)CN1; ξPro(4R-Me) = C[C@H]1CNC(C(=O)O)C1; NH(4-Me-phenyl) = Cc1ccc(N*)cc1; aThr = C[C@H](O)[C@H](N)C(=O)O; Pip = O=C(O)[C@@H]1CCCCN1; NMeA = CN[C@@H](C)C(=O)O; X4 = c1cc2c(cc1N*)CCC2; X8 = c1cc2c(cc1N*)CCO2; X6 = Cc1cc(C)cc(N*)c1; CO = O=C([*:1])[*:2]

Take `Cc1ccc(NC(=O)N[C@@H](Cc2cc(F)cc(F)c2)C(=O)N[C@@H]2C(=O)N3C[C@H](O)CC3C(=O)N(C)[C@@H](C)C(=O)N[C@@H](C)C(=O)N3C[C@H](C)CC3C(=O)O[C@H]2C)cc1` (stereo partly drawn) [Compound 31, (S)-3-(3,5-difluorophenyl)-N-((2S,6S,9S,11aS,13R,17S,18S,20aS)-13-hydroxy-2,6,9,10,18-pentamethyl-5,8,11,16,20-pentaoxohexadecahydro-1H,5H,16H-dipyrrolo[2,1-c:2′,1′-l][1]oxa[4,7,10,13]tetraazacyclohexadecin-17-yl)-2-(3-(p-tolyl)ureido)propanamide] ({NH(4-Me-phenyl)-CO}-[Phe(3,5-F2)][aThr][ξPro(4R-OH)][NMeA]A[ξPro(4R-Me)]; ester 2-C): the MIC in assay [1] was found to be 1.56 µM (≈ 1.24 µg/mL); in assay [3] it was 0.78 µM (≈ 0.622 µg/mL). For the same compound, the “Minimal Inhibitory Concentrations S. aureus USA 300 ΔClpP” value in assay [2] was greater than 200 µM.
Consider `C[C@@H]1C[C@H]2C(=O)O[C@@H](C)[C@H](NC(=O)[C@H](Cc3cc(F)cc(F)c3)NC(=O)Nc3ccc4c(c3)CCC4)C(=O)N3CCC[C@H]3C(=O)N3CCCC[C@H]3C(=O)N[C@@H](C)C(=O)N2C1` [Compound 302, (S)-3-(3,5-difluorophenyl)-2-(3-(2,3-dihydro-1H-INDEN-5-yl)ureido)-N-((2R,6S,8aS,14aS,20S,21S,23aS)-2,6,21-trimethyl-5,8,14,19,23-pentaoxooctadecahydro-1H,5H,14H,19H-pyrido[2,1-i]dipyrrolo[2,1-c:2′,1′-l][1]oxa[4,7,10,13]tetraazacyclohexadecin-20-yl)propanamide] ({X4-CO}-[Phe(3,5-F2)][aThr]P[Pip]A[Pro(4R-Me)]; ester 2-C), for which the MIC in assay [1] turned out to be 0.059 µM (≈ 0.0492 µg/mL). Moreover, the “Minimal Inhibitory Concentrations S. aureus USA 300 ΔClpP” value in assay [2] was greater than 20 µM.
The matching figures for `Cc1cc(C)cc(NC(=O)N[C@@H](Cc2cc(F)cc(F)c2)C(=O)N[C@@H]2C(=O)N3CCC[C@H]3C(=O)N3CCCC[C@H]3C(=O)N[C@@H](C)C(=O)N3C[C@H](C)C[C@H]3C(=O)O[C@H]2C)c1` [Compound 304, (S)-3-(3,5-difluorophenyl)-2-(3-(3,5-dimethylphenyl)ureido)-N-((2R,6S,8aS,14aS,20S,21S,23aS)-2,6,21-trimethyl-5,8,14,19,23-pentaoxooctadecahydro-1H,5H,14H,19H-pyrido[2,1-i]dipyrrolo[2,1-c:2′,1′-l][1]oxa[4,7,10,13]tetraazacyclo-hexadecin-20-yl)propanamide] ({X6-CO}-[Phe(3,5-F2)][aThr]P[Pip]A[Pro(4R-Me)]; ester 2-C): 0.079 µM (≈ 0.0649 µg/mL) and greater than 20 µM.
The matching figures for `C[C@@H]1C[C@H]2C(=O)O[C@@H](C)[C@H](NC(=O)[C@H](Cc3cc(F)cc(F)c3)NC(=O)Nc3ccc4c(c3)CCO4)C(=O)N3CCC[C@H]3C(=O)N3CCCC[C@H]3C(=O)N[C@@H](C)C(=O)N2C1` [Compound 305, (S)-3-(3,5-difluorophenyl)-2-(3-(2,3-dihydrobenzofuran-5-yl)ureido)-N-((2R,6S,8aS,14aS,20S,21S,23aS)-2,6,21-trimethyl-5,8,14,19,23-pentaoxooctadecahydro-1H,5H,14H,19H-pyrido[2,1-i]dipyrrolo[2,1-c:2′,1′-l][1]oxa[4,7,10,13]tetraazacyclo-hexadecin-20-yl)propanamide] ({X8-CO}-[Phe(3,5-F2)][aThr]P[Pip]A[Pro(4R-Me)]; ester 2-C): 0.24 µM (≈ 0.201 µg/mL) and greater than 20 µM.
